We go through four molecules from patent US7795456B2, “Insecticidal N-substituted sulfoximines” (Dow AgroSciences LLC, priority 2004, dated 2010).

The subject of series [1] is beet armyworm (Spodoptera exigua). The series is described as follows: Insecticidal test for beet armyworm in injection assays. Conditions: 1 h, read-out: BAW SYM: % showing intoxicated symptoms at 10 μg/larva against beet armyworm in injection tests.
The test system of series [2] is corn earworm (Helicoverpa zea).
Series [3] has as its system cotton aphid (Aphis gossypii). The series is described as follows: Insecticidal test for cotton aphid, foliar spray on squash. Conditions: for pest or weed control at 50 ppm / pest or weed control at 200 ppm: Aphis gossypii, foliar, 72 h; for pest or weed control at 50 ppm: read-out: CA 50: % control at 50 ppm against cotton aphid in foliar spray tests; for pest or weed control at 200 ppm: read-out: CA 200: % control at 200 ppm against cotton aphid in foliar spray tests.

Series [4] relates to sweet potato whitefly (Bemisia tabaci). The series is described as follows: Insecticidal test for sweet potato whitefly, foliar spray on cotton. The conditions noted are these: Bemisia tabaci, in Gossypium hirsutum, foliar, read-out: SPW 200: % control at 200 ppm against sweet potato whitefly in foliar spray tests.
Series [5] concerns beet armyworm (Spodoptera exigua).
Series [6] concerns fruit fly (Drosophila melanogaster).
The test system of series [7] is green peach aphid (Myzus persicae). In words: Insecticidal test for green peach aphid, foliar spray on cabbage seedlings.
Series [8] concerns yellow fever mosquito (Aedes aegypti) larvae. In words: whole plant or invertebrate. Conditions: 72 h, read-out: YFM 26: % control at 26 ppm against yellow fever mosquito in submerge tests. Type of series: in vivo.
[9] abbreviates: 50 μg/cm2, second-instar larvae, 5 days.

SMILES strings stand for the structures. Like-named read-outs stand apart in the source and are kept apart here.

Turning to `N#CN=S1(=O)CCCC1` [Compound 12, 1-Oxidotetrahydro-1H-1λ^4-thien-1-ylidenecyanamide], in series [1], the pest or weed control at 0.01 mg lay within 90 to 100%. Also, the “CEW 50: % mortality at 50 μg/cm2 against corn earworm in dietary tests” value (from here on “CEW 50: % mortality at 50 μg/cm2”) in series [2] (in vivo) was “D (key: A: 90-100; B: 80-89; C: 70-79; D: 60-69; E: 50-59; F: Less than 50; G: Inactive; H: Not tested)”. Moreover, in series [3], the pest or weed control at 50 ppm was 90 to 100% and the pest or weed control at 200 ppm lay within 90 to 100%. Moreover, in series [3] (in vivo), the “% Control at ppm, against cotton aphid: 0.78” value was “E (key: A: 90-100; B: 80-89; C: 70-79; D: 60-69; E: 50-59; F: Less than 50; G: Inactive; H: Not tested)”; the “% Control at ppm, against cotton aphid: 3.12” value is recorded as “E (key: A: 90-100; B: 80-89; C: 70-79; D: 60-69; E: 50-59; F: Less than 50; G: Inactive; H: Not tested)”; the “% Control at ppm, against cotton aphid: 12.5” value is “A (key: A: 90-100; B: 80-89; C: 70-79; D: 60-69; E: 50-59; F: Less than 50; G: Inactive; H: Not tested)”; the “% Control at ppm, against cotton aphid: 50” value is “A (key: A: 90-100; B: 80-89; C: 70-79; D: 60-69; E: 50-59; F: Less than 50; G: Inactive; H: Not tested)”. In series [4], the pest or weed control at 200 ppm lay within 80 to 89%. Further, the “BAW 50: % mortality at 50 μg/cm2 against beet armyworm in dietary tests” value (from here on “BAW 50: % mortality at 50 μg/cm2”) in series [5] (in vivo) is recorded as “F (key: A: 90-100; B: 80-89; C: 70-79; D: 60-69; E: 50-59; F: Less than 50; G: Inactive; H: Not tested)”. In series [6] (in vivo), the “FF 25: % mortality at 25 μg/cm2 against fruit fly in dietary tests” value (shortened to “FF 25: % mortality at 25 μg/cm2”) is recorded as “D (key: A: 90-100; B: 80-89; C: 70-79; D: 60-69; E: 50-59; F: Less than 50; G: Inactive; H: Not tested)” and the “FF SYM: % showing intoxicated symptoms at 25 μg/cm2 against fruit fly in dietary tests” value is reported as “A (key: A: 90-100; B: 80-89; C: 70-79; D: 60-69; E: 50-59; F: Less than 50; G: Inactive; H: Not tested)”. In series [7] (in vivo), the “% Control at ppm, against green peach aphid: 12.5” value was “F (key: A: 90-100; B: 80-89; C: 70-79; D: 60-69; E: 50-59; F: Less than 50; G: Inactive; H: Not tested)” and the “% Control at ppm, against green peach aphid: 50” value is “F (key: A: 90-100; B: 80-89; C: 70-79; D: 60-69; E: 50-59; F: Less than 50; G: Inactive; H: Not tested)”.
As for `CS(=O)(CCc1ccc(Cl)nc1)=NC#N` (stereo not shown) [Compound 13], the pest or weed control at 0.01 mg in series [1] is below 50%. The “CEW 50: % mortality at 50 μg/cm2” value in series [2] (setting [9]) is recorded as “G (Inactive)”. For the same molecule, the “% Control at ppm, against cotton aphid: 0.195” value in series [3] (0.195 ppm, rundown assay) is reported as “F (Less than 50)”. For the same molecule, the “% Control at ppm, against cotton aphid: 0.78” value in series [3] (0.78 ppm, rundown assay) was “A (90-100)”. In addition, the “% Control at ppm, against cotton aphid: 3.12” value in series [3] (3.12 ppm, rundown assay) is reported as “A (90-100)”. For the same molecule, the “% Control at ppm, against cotton aphid: 12.5” value in series [3] (12.5 ppm, rundown assay) was “A (90-100)”. In series [3] (50 ppm, rundown assay), the “% Control at ppm, against cotton aphid: 50” value is “A (90-100)”. In series [3], the pest or weed control at 50 ppm lay in the range of 90 to 100% and the pest or weed control at 200 ppm lay within 90 to 100%. Also, the pest or weed control at 200 ppm in series [4] lay in the range of 90 to 100%. The “BAW 50: % mortality at 50 μg/cm2” value in series [5] (setting [9]) is given as “G (Inactive)”. Also, the “FF 25: % mortality at 25 μg/cm2” value in series [6] (25 μg/cm2, 48 h) is given as “G (Inactive)”. For the same molecule, the “% Control at ppm, against green peach aphid: 0.78” value in series [7] (0.78 ppm, rundown assay, 3 days) is reported as “F (Less than 50)”. In addition, the “% Control at ppm, against green peach aphid: 3.12” value in series [7] (3.12 ppm, rundown assay, 3 days) is reported as “C (70-79)”. Moreover, the “% Control at ppm, against green peach aphid: 12.5” value in series [7] (12.5 ppm, rundown assay, 3 days) was “C (70-79)”. Moreover, in series [7] (50 ppm, rundown assay, 3 days), the “% Control at ppm, against green peach aphid: 50” value is recorded as “B (80-89)”.
On to `N#CN=S1(=O)CCCC1Cc1ccc(Cl)nc1` (stereo not shown) [Compound 14], for which, in series [2] (setting [9]), the “CEW 50: % mortality at 50 μg/cm2” value is “G (Inactive)”. Also, in series [3], the pest or weed control at 50 ppm was in the range of 90 to 100% and the pest or weed control at 200 ppm lay in the range of 90 to 100%. The pest or weed control at 26 ppm in series [8] fell in the range of 90 to 100%. Moreover, in series [5] (setting [9]), the “BAW 50: % mortality at 50 μg/cm2” value is recorded as “G (Inactive)”. Moreover, in series [6] (25 μg/cm2, 48 h), the “FF 25: % mortality at 25 μg/cm2” value is “F (Less than 50)”.
With `CCS(=O)(=NC#N)C(C)c1ccc(Cl)nc1` (stereo not shown) [Compound 18], the pest or weed control at 0.01 mg in series [1] is below 50%. For the same molecule, the “CEW 50: % mortality at 50 μg/cm2” value in series [2] (setting [9]) was “G (Inactive)”. Besides, in series [3], the pest or weed control at 50 ppm is 90 to 100% and the pest or weed control at 200 ppm lay within 90 to 100%. For the same molecule, the pest or weed control at 200 ppm in series [4] was 80 to 89%. Moreover, the “BAW 50: % mortality at 50 μg/cm2” value in series [5] (setting [9]) is recorded as “G (Inactive)”. The “FF 25: % mortality at 25 μg/cm2” value in series [6] (25 μg/cm2, 48 h) was “G (Inactive)”.
